Assay results taken from patent publication US10214511B2, “Quinazolines as potassium ion channel inhibitors” (Bristol-Myers Squibb Company, priority 2009, dated 2019).
pIC50: −log10 of the molar value. Like-named read-outs stand apart in the source and are kept apart here.

Assays:
[1] = target: Kv 1.5 (Homo sapiens (Human), UniProt P22460); assay: Kv1.5 (IKur) inhibition assay; format: cell-based
Text: Assays to determine the degree of activity of a compound as an IKur inhibitor are well known in the art and are described in references such as J. Gen. Physiol., 101(4):513-543 (April 1993), and Br. J. Pharmacol., 115(2):267-274 (May 1995).
Assays to determine the degree of activity of a compound as an inhibitor of other members of the Kv1 subfamily are also well known in the art. For example, inhibition of Kv1.1, Kv1.2 and Kv1.3 can be measured using procedures described by Grissmer, S. et al., Mol. Pharmacol., 45(6):1227-1234 (June 1994); inhibition of Kv1.4 can be measured using procedures described by Petersen, K. R. et al., Pflugers Arch., 437(3):381-392 (February 1999); inhibition of Kv1.6 can be measured using procedures described by Bowlby, M. R. et al., J. Neurophysiol. 73(6):2221-2229 (June 1995); and inhibition of Kv1.7 can be measured using procedures described by Kalman, K. et al., J. Biol. Chem., 273(10):5851-5857 (Mar. 6, 1998).
Compounds of the present invention were tested in one of the assays described immediately above and the results shown in Table 2 below were obtained.

[2] = target: JAK2 (Homo sapiens (Human), UniProt O60674); assay: Caliper Kinase Assay; format: biochemical; settings: ATP at Km, peptide 1.5 uM; read-out: LLE_JAK2 (IC50)
JAK2, sequence (O60674 whole entry, species assumed): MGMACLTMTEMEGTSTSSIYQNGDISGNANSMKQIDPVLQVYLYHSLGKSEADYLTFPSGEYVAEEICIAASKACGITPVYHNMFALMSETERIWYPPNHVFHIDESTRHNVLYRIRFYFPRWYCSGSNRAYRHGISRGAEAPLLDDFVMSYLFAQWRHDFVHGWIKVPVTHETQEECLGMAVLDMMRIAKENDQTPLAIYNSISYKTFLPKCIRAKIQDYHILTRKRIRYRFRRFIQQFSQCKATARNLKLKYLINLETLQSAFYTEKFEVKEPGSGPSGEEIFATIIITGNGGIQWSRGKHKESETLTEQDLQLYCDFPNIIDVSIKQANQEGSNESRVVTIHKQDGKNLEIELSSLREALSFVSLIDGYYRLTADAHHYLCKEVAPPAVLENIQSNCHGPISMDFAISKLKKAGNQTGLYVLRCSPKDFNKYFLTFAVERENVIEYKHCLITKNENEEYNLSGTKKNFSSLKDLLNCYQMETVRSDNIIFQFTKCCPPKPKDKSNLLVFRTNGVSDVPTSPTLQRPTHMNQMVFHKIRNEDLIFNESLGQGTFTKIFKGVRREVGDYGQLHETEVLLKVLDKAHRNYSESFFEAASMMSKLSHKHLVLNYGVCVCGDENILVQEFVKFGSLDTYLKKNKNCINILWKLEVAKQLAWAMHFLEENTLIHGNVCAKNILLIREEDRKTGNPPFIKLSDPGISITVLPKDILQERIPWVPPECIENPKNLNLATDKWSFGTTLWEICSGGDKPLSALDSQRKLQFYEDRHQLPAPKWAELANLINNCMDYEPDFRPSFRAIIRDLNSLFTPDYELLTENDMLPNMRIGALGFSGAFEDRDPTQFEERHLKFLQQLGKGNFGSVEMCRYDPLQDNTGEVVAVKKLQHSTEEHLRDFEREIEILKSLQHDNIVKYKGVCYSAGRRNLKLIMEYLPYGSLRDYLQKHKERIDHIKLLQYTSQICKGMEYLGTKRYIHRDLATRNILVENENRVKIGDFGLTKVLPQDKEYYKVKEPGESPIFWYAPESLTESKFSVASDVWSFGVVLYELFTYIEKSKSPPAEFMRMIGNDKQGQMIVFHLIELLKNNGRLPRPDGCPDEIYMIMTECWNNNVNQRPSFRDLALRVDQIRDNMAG
Text: (§1) IC50 values were derived by non-linear regression analysis.

[3] = Brain penetration across species; format: in vivo
[4] = target: ABL1 (Homo sapiens (Human), UniProt P00519); assay: Caliper Kinase Assay; format: biochemical; settings: read-out: LLE_ABL1 (% INH, 50 uM)
Text: as §1

[5] = target: Flt3 (Homo sapiens (Human), UniProt P36888); assay: Caliper Kinase Assay; format: biochemical; settings: ATP at Km, peptide 1.5 uM; read-out: LLE Flt3 (IC50)
Text: as §1

[6] = target: PIM1 (Homo sapiens (Human), UniProt P11309); assay: Caliper Kinase Assay; format: biochemical; settings: ATP at Km, peptide 1.5 uM
PIM1, sequence (P11309 whole entry, species assumed): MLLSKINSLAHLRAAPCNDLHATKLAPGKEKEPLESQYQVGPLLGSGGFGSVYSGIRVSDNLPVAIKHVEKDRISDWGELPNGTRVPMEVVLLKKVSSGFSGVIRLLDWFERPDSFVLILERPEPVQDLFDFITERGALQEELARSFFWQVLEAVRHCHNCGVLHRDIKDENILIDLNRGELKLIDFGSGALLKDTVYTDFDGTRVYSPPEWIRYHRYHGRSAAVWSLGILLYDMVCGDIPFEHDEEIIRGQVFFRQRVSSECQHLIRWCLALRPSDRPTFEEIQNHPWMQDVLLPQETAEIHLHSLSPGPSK
Text: as §1

[7] = target: IGF1R (Homo sapiens (Human), UniProt P08069); assay: Caliper Kinase Assay; format: biochemical; settings: ATP at Km, peptide 1.5 uM
IGF1R, sequence (P08069 31-1367, species assumed): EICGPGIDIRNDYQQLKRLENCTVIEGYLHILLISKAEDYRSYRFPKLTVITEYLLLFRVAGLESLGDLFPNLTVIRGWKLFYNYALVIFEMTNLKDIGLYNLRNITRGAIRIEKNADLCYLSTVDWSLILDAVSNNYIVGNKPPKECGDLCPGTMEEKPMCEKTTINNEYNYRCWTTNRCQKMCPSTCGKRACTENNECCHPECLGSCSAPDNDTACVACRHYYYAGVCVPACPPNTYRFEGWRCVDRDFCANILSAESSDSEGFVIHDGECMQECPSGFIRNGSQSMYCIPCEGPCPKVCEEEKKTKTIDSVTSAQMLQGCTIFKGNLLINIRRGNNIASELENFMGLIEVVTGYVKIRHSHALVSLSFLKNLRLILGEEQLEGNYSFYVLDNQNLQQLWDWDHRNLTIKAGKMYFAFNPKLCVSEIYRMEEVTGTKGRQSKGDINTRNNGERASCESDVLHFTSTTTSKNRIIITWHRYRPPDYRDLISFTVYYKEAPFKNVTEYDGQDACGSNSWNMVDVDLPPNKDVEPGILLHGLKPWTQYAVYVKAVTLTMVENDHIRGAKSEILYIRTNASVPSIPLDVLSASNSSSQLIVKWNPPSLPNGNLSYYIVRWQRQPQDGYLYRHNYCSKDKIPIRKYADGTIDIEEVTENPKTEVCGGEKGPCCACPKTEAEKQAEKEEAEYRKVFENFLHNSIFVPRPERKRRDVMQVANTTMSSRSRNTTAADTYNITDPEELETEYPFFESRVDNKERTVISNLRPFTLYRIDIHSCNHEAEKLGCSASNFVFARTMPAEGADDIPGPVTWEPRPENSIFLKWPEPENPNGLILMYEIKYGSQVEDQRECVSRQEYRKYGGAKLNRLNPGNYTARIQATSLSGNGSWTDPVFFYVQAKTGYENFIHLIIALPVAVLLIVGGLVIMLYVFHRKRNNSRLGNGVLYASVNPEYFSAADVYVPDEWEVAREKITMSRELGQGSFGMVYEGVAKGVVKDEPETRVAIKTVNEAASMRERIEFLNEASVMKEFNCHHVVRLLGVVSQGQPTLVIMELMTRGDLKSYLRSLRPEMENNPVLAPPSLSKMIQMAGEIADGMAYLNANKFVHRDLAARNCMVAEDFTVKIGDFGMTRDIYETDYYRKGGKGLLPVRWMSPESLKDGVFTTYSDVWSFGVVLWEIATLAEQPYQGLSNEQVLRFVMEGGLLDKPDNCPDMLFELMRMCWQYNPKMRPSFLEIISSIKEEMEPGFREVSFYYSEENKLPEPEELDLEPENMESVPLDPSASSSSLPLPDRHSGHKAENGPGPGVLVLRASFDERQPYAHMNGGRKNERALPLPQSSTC
Text: as §1

[8] = target: JAK3 (Homo sapiens (Human), UniProt P52333); assay: Caliper Kinase Assay; format: biochemical; settings: ATP at Km, peptide 1.5 uM; read-out: LLE_JAK3 (IC50)
[9] = target: CK2A2 (Homo sapiens (Human), UniProt P19784); assay: Caliper Kinase Assay; format: biochemical; settings: ATP at Km, peptide 1.5 uM; read-out: LLE_CK2A2 (IC50)
[10] = target: GSK3B (Homo sapiens (Human), UniProt P49841); assay: Caliper Kinase Assay; format: biochemical; settings: ATP at Km, peptide 1.5 uM; read-out: LLE GSK3B (IC50)
GSK3B, sequence (P49841 whole entry, species assumed): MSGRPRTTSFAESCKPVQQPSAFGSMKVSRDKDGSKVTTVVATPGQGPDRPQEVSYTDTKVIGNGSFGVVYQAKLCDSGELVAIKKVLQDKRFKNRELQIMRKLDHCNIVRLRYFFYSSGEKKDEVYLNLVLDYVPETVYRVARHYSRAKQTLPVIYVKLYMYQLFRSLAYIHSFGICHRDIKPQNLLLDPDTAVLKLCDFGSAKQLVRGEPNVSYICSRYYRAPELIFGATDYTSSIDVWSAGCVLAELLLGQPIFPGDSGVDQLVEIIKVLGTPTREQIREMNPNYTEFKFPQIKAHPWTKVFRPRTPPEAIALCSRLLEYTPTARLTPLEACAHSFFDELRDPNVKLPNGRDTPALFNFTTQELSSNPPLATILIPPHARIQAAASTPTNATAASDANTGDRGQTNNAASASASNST
Procedure: (§2) In addition, compounds of the present invention, such as particular compounds disclosed in the preceding examples, were evaluated for their effectiveness as inhibitors of kinase receptor activity.
(§3) The analyses were performed in U-bottom 384-well plates. The final assay volume was 30 μl prepared from 15 μl additions of enzyme and substrates (fluoresceinated peptide and ATP) and test compounds in assay buffer (20 mM HEPES pH 7.4, 10 mM MgCl2, 0.015% Brij35 and 4 mM DTT). The reaction was initiated by the combination of purified protein kinase with substrates and test compounds. The reaction was incubated at room temperature for 60 min. and terminated by adding 30 μl of 35 mM EDTA to each sample. The reaction mixture was analyzed on the Caliper LABCHIP® 3000 (Caliper, Hopkinton, Mass.) by electrophoretic separation of the fluorescent substrate and phosphorylated product. Inhibition data were calculated by comparison to no enzyme control reactions for 100% inhibition and vehicle-only reactions for 0% inhibition. The ATP was used at a final concentration equivalent to the Km and the peptide substrate concentration was 1.5 μM. […] Compounds were dissolved at 10 mM in dimethylsulfoxide (DMSO) and evaluated at eleven concentrations. IC50 values were derived by non-linear regression analysis.

[11] = target: TPL2 (Homo sapiens (Human), UniProt P41279); assay: Caliper Kinase Assay; format: biochemical; settings: ATP at Km, peptide 1.5 uM; read-out: LLE_TPL2 CAL (IC50)
TPL2, sequence (P41279 whole entry, species assumed): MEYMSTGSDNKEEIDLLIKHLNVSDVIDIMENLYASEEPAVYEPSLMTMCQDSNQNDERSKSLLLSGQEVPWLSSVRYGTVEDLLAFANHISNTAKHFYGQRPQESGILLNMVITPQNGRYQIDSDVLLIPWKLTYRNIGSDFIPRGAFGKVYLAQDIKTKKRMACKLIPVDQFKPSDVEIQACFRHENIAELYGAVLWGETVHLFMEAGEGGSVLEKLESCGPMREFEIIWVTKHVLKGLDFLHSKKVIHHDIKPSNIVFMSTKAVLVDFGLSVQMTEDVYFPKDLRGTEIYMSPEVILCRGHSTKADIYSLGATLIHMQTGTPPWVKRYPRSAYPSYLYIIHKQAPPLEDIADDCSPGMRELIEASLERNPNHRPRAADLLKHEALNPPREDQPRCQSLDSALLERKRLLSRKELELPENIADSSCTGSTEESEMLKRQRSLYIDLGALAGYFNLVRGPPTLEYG
Procedure: as §2, §3

[12] = target: IRAK-4 (Homo sapiens (Human), UniProt Q9NWZ3); assay: Caliper Kinase Assay; format: biochemical; settings: ATP at Km, peptide 1.5 uM; read-out: LLE IRAK-4 (IC50)
Procedure: as §2, §3

[13] = target: BTK (Homo sapiens (Human), UniProt Q06187); assay: Caliper Kinase Assay; format: biochemical; settings: ATP at Km, peptide 1.5 uM; read-out: LLE_BTK (IC50)
BTK, sequence (Q06187 whole entry, species assumed): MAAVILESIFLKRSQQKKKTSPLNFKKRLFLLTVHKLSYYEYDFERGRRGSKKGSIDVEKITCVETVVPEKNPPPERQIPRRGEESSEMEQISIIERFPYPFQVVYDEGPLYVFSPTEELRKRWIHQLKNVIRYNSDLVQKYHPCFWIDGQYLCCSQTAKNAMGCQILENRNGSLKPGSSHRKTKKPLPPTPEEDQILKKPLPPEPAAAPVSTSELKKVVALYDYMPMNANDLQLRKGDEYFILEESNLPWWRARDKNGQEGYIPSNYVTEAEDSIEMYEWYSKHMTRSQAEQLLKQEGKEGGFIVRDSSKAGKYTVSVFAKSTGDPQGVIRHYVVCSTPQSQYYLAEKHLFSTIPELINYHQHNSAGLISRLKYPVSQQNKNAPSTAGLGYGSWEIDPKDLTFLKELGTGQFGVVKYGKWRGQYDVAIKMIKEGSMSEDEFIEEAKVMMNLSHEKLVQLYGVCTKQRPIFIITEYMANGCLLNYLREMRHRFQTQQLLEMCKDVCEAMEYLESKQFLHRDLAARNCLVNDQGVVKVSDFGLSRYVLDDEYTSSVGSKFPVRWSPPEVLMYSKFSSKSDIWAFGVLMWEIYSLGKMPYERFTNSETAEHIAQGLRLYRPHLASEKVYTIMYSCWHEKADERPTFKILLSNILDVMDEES

[14] = target: TAK1 (Homo sapiens (Human), UniProt O43318); assay: Caliper Kinase Assay; format: biochemical; settings: ATP at Km, peptide 1.5 uM; read-out: LLE_TAK1 (IC50)
Text: as §1

Kv 1.5, sequence (P22460 whole entry): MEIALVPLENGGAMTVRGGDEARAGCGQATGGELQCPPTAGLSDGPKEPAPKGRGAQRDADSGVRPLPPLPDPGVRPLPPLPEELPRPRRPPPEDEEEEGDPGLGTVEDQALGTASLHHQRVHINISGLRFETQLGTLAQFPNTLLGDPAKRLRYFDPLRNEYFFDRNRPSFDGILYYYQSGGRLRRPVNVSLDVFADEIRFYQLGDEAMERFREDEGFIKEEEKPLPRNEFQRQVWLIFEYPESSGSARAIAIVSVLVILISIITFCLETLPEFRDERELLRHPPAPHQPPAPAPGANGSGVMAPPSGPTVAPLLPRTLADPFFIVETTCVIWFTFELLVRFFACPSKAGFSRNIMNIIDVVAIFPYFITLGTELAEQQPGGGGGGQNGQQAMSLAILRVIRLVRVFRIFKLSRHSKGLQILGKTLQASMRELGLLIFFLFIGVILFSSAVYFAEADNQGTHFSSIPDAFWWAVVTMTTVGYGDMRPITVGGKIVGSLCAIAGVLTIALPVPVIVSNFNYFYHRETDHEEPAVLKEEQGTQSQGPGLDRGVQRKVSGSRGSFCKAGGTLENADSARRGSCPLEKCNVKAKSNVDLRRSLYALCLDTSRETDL

Structure (SMILES) | inhibition at 0.3 µM [1] [%] | also measured
COc1cncc(-c2nc(NCc3ccccn3)c3c(-c4ccccc4)cccc3n2)c1 [Example 29] | 65.3 | –
NS(=O)(=O)c1cncc(-c2nc(NCc3ccccn3)c3c(-c4ccccc4)cccc3n2)c1 [Example 7, 5-(5-Phenyl-4-(pyridin-2-ylmethylamino)quinazolin-2-yl)pyridine-3-sulfonamide] | 95.7 | pIC50 [2]: ≤ 4.30; brain penetration [3]: surprisingly low degree of brain penetration across species
Clc1nc(NCc2ccccn2)c2c(-c3ccccc3)cccc2n1 [Example 19] | – | pIC50 [2]: 4.75; inhibition at 50 µM [4]: 32.4%; pIC50 [5]: 5.00; pIC50 ([6]; first section of Table 4, read-out: LLE PIM1 (IC50)): 4.47; pIC50 ([6]; third section of Table 4, read-out: LLE_PIM1 (IC50)): 4.47; pIC50 ([7]; first section of Table 4, read-out: LLE IGF1R (IC50)): 4.75; pIC50 ([7]; second section of Table 4, read-out: LLE_IGF1R (IC50)): 4.75; pIC50 [8]: 4.62; pIC50 [9]: 4.59; pIC50 [10]: 5.29; pIC50 [11]: 4.92; pIC50 [12]: 4.73; pIC50 [13]: 4.72
COc1cccc(CNc2nc(Cl)nc3cccc(-c4ccccc4)c23)c1 [Example 134] | 98.4 | –
Fc1ccc(CNc2nc(-c3cncnc3)nc3cccc(-c4ccccc4)c23)nc1 [Example 111] | 61.5 | –
c1ccc(-c2cccc3nc(-c4cncnc4)nc(NCc4ccccn4)c23)cc1 [Example 1, 5-Phenyl-N-(pyridin-2-ylmethyl)-2-(pyrimidin-5-yl)quinazolin-4-amine] | – | pIC50 [14]: ≤ 4.30; pIC50 [2]: 4.62
CC(Nc1nc(Cl)nc2cccc(-c3ccccc3)c12)c1ccccc1 (stereo not drawn) [Example 130] | 96.2 | –
c1ccc(CNc2nc(-c3cncnc3)nc3cccc(-c4ccccc4)c23)cc1 [Example 40] | 59.8 | –
c1ccc(CNc2nc(-c3cncnc3)nc3cccc(-c4cccc(N5CCOCC5)c4)c23)nc1 [Example 107] | 50.3 | –
Clc1nc(Nc2nccs2)c2c(-c3ccccc3)cccc2n1 [Example 38] | 61.3 | –
c1ccc(-c2cccc3nc(-c4ccc5cc[nH]c5c4)nc(NCc4ccccn4)c23)cc1 [Example 46] | 98.7 | –

Continued, in another order:

inhibition at 0.3 µM [1] [%] | Structure (SMILES) | also measured
55.6 | FC(F)(F)c1ccccc1CNc1nc(Cl)nc2cccc(-c3ccccc3)c12 [Example 137] | –
98.7 | FC(F)(F)c1ccc(-c2cccc3nc(Cl)nc(NCc4ccccn4)c23)cc1 [Example 97] | –
51.8 | Fc1ccc(CNc2nc(Cl)nc3cccc(-c4ccccc4)c23)nc1 [Example 110] | –
96.4 | Clc1nc(NCc2ccccc2)c2c(-c3ccccc3)cccc2n1 [Example 42] | –
96.1 | c1ccc(-c2nc(NCc3ccccn3)c3c(-c4ccccc4)cccc3n2)cc1 [Example 50] | –
98.7 | COc1ccc(-c2nc(NCc3ccccn3)c3c(-c4ccccc4)cccc3n2)cn1 [Example 105] | –
53.1 | Nc1ccc(-c2nc(NCc3ccccn3)c3c(-c4ccccc4)cccc3n2)cn1 [Example 32] | –
98.1 | CN(C)c1ccc(-c2cccc3nc(Cl)nc(NCc4ccccn4)c23)cc1 [Example 108] | –
98.2 | c1ccc(-c2cccc3nc(-c4ccncc4)nc(NCc4ccccn4)c23)cc1 [Example 31] | –
60.4 | Cc1nc(NCc2ccccn2)c2c(-c3ccccc3)cccc2n1 [Example 22] | –
